The results in this text go back to ChEMBL document CHEMBL1201862, “PubChem BioAssay data set” (2004).

What all share (assay): NCI anticancer screen, dose series, 48 h
The test system of assay [1] is NCI/ADR-RES.
The subject of assay [2] is U-251.
For assay [3], the system named is CAKI-1.
Assay [4] relates to SNB-75.
The test system of assay [5] is CCRF-CEM.
The subject of assay [6] is EKVX.
For assay [7], the system named is A549.
Assay [8] relates to 786-0.
For assay [9], the system named is SK-MEL-28.
Assay [10] concerns MCF7.
Assay [11] concerns NCI-H23.
For assay [12], the system named is TK-10.
Assay [13] relates to HOP-62.
Assay [14] deals with HL-60.
Assay [15] deals with Malme-3M.
The test system of assay [16] is MDA-N.
For assay [17], the system named is UACC-257.
Assay [18] deals with HOP-92.
Assay [19] concerns PC-3.

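These data come from cells grown in 96-well plates and exposed to compound for 48 hours at five concentrations. At the GI50, growth is halved.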 Active and inactive are the calls of the source. Cut-off read from the data, not from the text of the source: active = GI50 up to about 1.1 µM and inactive = higher. Where only a bound is given, the exact number is not on record here.

As for `Brc1ccc(/N=C/C=C(\Nc2ccc(Br)cc2)C23CC4CC(CC(C4)C2)C3)cc1`, the GI50 in assay [1] is 20 µM (inactive); in assay [2], 14.4 µM (inactive); in [3], 11.4 µM (inactive); in [4], 17 µM (inactive); in assay [5] it was 1.63 µM (inactive); in assay [6] it was 18.8 µM (inactive). The GI50 in assay [7] is 22.5 µM (inactive); in assay [8], 13.9 µM (inactive); in [9], 18.5 µM (inactive); in [10], 11 µM (inactive); in assay [11] it was 16.9 µM (inactive); in assay [12] it was 14.8 µM (inactive). In addition, the GI50 is 19.1 µM (inactive) in assay [13]; 2.95 µM (inactive) in assay [14]; 19.1 µM (inactive) in assay [15]; 12.4 µM (inactive) in [16]; 16.6 µM (inactive) in [17]; 13.6 µM (inactive) in [18]. In addition, the GI50 in [19] was 16.1 µM (inactive).
For the compound `NCC(=O)C(O)C(O)C(O)CO` (centres undefined), the GI50 in [1] is > 100 µM (inactive); in assay [2], > 100 µM (inactive); in assay [3] it was > 100 µM (inactive); in assay [4], 65.9 µM (inactive); in [5] it was > 100 µM (inactive); in [6], > 100 µM (inactive). Moreover, the GI50 in assay [7], in assay [8], in [9], in assay [10], in assay [11] and in [12] was > 100 µM (inactive) throughout. For the same compound, the GI50 in assay [13], in assay [14], in assay [15], in assay [16], in assay [17] and in assay [18] was > 100 µM (inactive) throughout. Also, the GI50 in assay [19] was > 100 µM (inactive).
Consider `CCCCN(CCCC)CCC(O)c1cc(-c2ccc(C(F)(F)F)cc2)nc(-c2ccc(C(F)(F)F)cc2)c1` (centres undefined), for which the GI50 in assay [1], in [2], in assay [3], in assay [4], in assay [5] and in assay [6] was > 100 µM (inactive) throughout. The GI50 in assay [8], in assay [9], in assay [10], in assay [11], in assay [12] and in assay [13] was > 100 µM (inactive) each time. In addition, the GI50 in assay [14], in assay [15], in [16], in [17], in assay [18] and in [19] was > 100 µM (inactive) in each case.
`N=C1/C(=C/c2ccco2)C(=O)N=C2SC=NN12`: the GI50 in assay [1] was > 100 µM (inactive); in assay [2], > 100 µM (inactive); in assay [3] it was > 100 µM (inactive); in assay [4] it was 99.1 µM (inactive); in [5], > 100 µM (inactive); in assay [6] it was > 100 µM (inactive). Moreover, the GI50 in assay [7], in assay [8], in assay [9], in [10], in assay [11] and in assay [12] was > 100 µM (inactive) in each case. Also, the GI50 in assay [13], in [14], in [15], in [16], in [17] and in [18] was > 100 µM (inactive) in each case. Besides, the GI50 in [19] was > 100 µM (inactive).
In the case of `CC(=O)NC1C(OCc2ccccc2)OC(CO)C(O)C1OCC(=O)N1CCCC1C(=O)NC(CCC(=O)NCCCCCNc1c2ccccc2nc2cccc([N+](=O)[O-])c12)C(N)=O` (centres undefined), the GI50 is 0.0726 µM (active) in assay [1]; 0.0108 µM (active) in assay [2]; 0.0262 µM (active) in assay [3]; 0.145 µM (active) in [4]; 0.07 µM (active) in assay [5]; 0.148 µM (active) in assay [6]. For the same compound, the GI50 was 0.0134 µM (active) in assay [7]; 0.0131 µM (active) in assay [8]; 0.0307 µM (active) in assay [9]; 0.003 µM (active) in [10]; 0.0336 µM (active) in assay [11]; 0.0508 µM (active) in [12]. The GI50 in [13] is 0.017 µM (active); in [14], 0.0221 µM (active); in [15] it was 0.0188 µM (active); in assay [16], 0.019 µM (active); in [17] it was 0.0481 µM (active); in [18], 0.0252 µM (active). The GI50 in assay [19] is 0.00321 µM (active).
On to `Cc1ccnc(NS(=O)(=O)c2ccc(N=[N+]=[N-])cc2)n1`, for which the GI50 in assay [1] is > 100 µM (inactive); in [2], > 100 µM (inactive); in [3] it was > 100 µM (inactive); in assay [4], > 100 µM (inactive); in [5], > 21.4 µM (inactive); in assay [6] it was > 100 µM (inactive). Further, the GI50 in assay [7], in assay [8], in assay [9], in assay [10], in assay [11] and in assay [12] was > 100 µM (inactive) in each case. Moreover, the GI50 in assay [13] was > 100 µM (inactive); in [14] it was > 46.9 µM (inactive); in assay [15] it was > 67.9 µM (inactive); in [16] it was > 100 µM (inactive); in assay [17] it was > 100 µM (inactive); in [18], > 100 µM (inactive). Also, in assay [19], the GI50 is > 100 µM (inactive).
As to `CCOC(=O)Nc1nc(-c2ccccc2)c(C)s1`, the GI50 in assay [1] was 59 µM (inactive); in assay [2], > 100 µM (inactive); in assay [3], > 100 µM (inactive); in assay [4], 31.8 µM (inactive); in assay [5], 31.5 µM (inactive); in [6], 23.7 µM (inactive). In addition, the GI50 in [7] is > 100 µM (inactive); in [8], > 100 µM (inactive); in assay [9], > 100 µM (inactive); in [10], 56.4 µM (inactive); in [11] it was 81.1 µM (inactive); in assay [12] it was > 100 µM (inactive). Further, the GI50 was > 100 µM (inactive) in assay [13]; 11.1 µM (inactive) in assay [14]; > 100 µM (inactive) in assay [15]; > 100 µM (inactive) in assay [16]; > 100 µM (inactive) in assay [17]; 11.7 µM (inactive) in assay [18]. The GI50 in assay [19] is > 100 µM (inactive).
As to `CSc1nc(SC)c2ncn(C3CC(Oc4ccc(C)cc4)C(COc4ccc(C)cc4)O3)c2n1` (centres undefined), the GI50 in assay [1] was > 100 µM (inactive); in assay [2] it was > 100 µM (inactive); in assay [3] it was > 100 µM (inactive); in assay [4], 26.5 µM (inactive); in assay [5] it was > 100 µM (inactive); in assay [6], > 100 µM (inactive). Moreover, the GI50 in [7], in assay [8], in assay [9], in [10], in assay [11] and in assay [12] was > 100 µM (inactive) in each case. Further, the GI50 in [13], in assay [14], in assay [15], in assay [16], in assay [17] and in [18] was > 100 µM (inactive) throughout. Moreover, the GI50 in assay [19] is > 100 µM (inactive).
Turning to `C/C(=N\Nc1nc2ccccc2s1)c1cc(C)ncn1`, the GI50 was 0.371 µM (active) in assay [1]; 1 µM (active) in assay [2]; 0.145 µM (active) in [3]; 1.34 µM (inactive) in [4]; 0.0929 µM (active) in assay [5]; 0.269 µM (active) in assay [6]. The GI50 in [7] is 2.25 µM (inactive); in assay [8] it was 0.507 µM (active); in [9] it was 3.09 µM (inactive); in assay [10] it was 0.341 µM (active); in assay [11], 0.741 µM (active); in assay [12] it was 15.3 µM (inactive). The GI50 in assay [13] was 1.34 µM (inactive); in [14], 0.0776 µM (active); in assay [15] it was 0.372 µM (active); in assay [16] it was 3.98 µM (inactive); in assay [17], 0.29 µM (active); in assay [18] it was 1.54 µM (inactive). The GI50 in [19] is 0.612 µM (active).
Turning to `O=c1oc2cccnc2n1CCN1CCN(c2ccc(Oc3ccccc3)cc2)CC1`, the GI50 in assay [1] was 32.5 µM (inactive); in assay [2], 56.9 µM (inactive); in assay [3], > 100 µM (inactive); in [4], 11.1 µM (inactive); in assay [5], 7.21 µM (inactive); in assay [6] it was > 100 µM (inactive). The GI50 was > 100 µM (inactive) in assay [7]; 20 µM (inactive) in assay [8]; > 100 µM (inactive) in assay [9]; > 100 µM (inactive) in assay [10]; > 100 µM (inactive) in assay [11]; 61.8 µM (inactive) in assay [12]. In addition, the GI50 in assay [13] was > 100 µM (inactive); in assay [14], 8.04 µM (inactive); in [15], 41.6 µM (inactive); in assay [16] it was 79.6 µM (inactive); in assay [17], 21.9 µM (inactive); in assay [18] it was 57.3 µM (inactive). The GI50 in [19] is 34.4 µM (inactive).
